Assay results reported in US20080153872A1, “Bis-(Coumarin) Compounds With Anti-Inflammatory Activity” (priority 2005, published 2008).

Assays:
[1] = system: CD1 mice; experiment: PMA induced ear oedema in CD1 mice; type: in vivo, mouse; conditions: topical, single dose of 250 or 100 μg/15 μL/ear; statistically significant vs positive control
Experimental: Male CD1 mice (Iffa Credo, France) weighing ˜35-40 g were randomly grouped (n=8 in vehicle treated test group, dexamethasone treated control group as well as in groups treated with compounds to be assayed). Test compounds, dexamethasone as well as vehicle (Trans-phase Delivery System, containing benzyl alcohol 10%, acetone 40% and isopropanol 50%) (all from Kemika, Croatia), were administered topically to the internal surface of the left ear thirty minutes prior to administration of phorbol 12-myristate 13-acetate (PMA) (Alexis biochemicals, USA). Test compounds were administered at a single dose of 250 or 100 μg/15 μL/ear and dexamethasone at a single dose of 50 μg/15 μL/ear. Thirty minutes later, 0.01% PMA solution in acetone was applied topically to the same area of each animal in a volume of 12 μL/ear. During the treatment and challenge, animals were anaesthetized by using inhalation anaesthesia. Six hours after the challenge, animals were euthanized by asphyxiation in 100% CO2 atmosphere. For assessing the auricular oedema, 8 mm discs were cut out of left and right auricular pinna and weighed. The degree of oedema was calculated by subtracting the weight of 8 mm disc of the untreated ear from that of the treated contralateral ear.

[2] = system: IL-4; experiment: Inhibition of IL-4 production by ConA stimulated mouse splenocytes; type: cell-based; conditions: 25 μM
Experimental: (§1) Spleen cell suspension was obtained from BALB/c mice and lymphocytes separated by gradient density centrifugation on Histopaque 1.083 on 400 g for 30 minutes. They were washed once in medium, counted and their number adjusted as 3×10^5/200 μL/well in 96 flat bottomed culture plate in RPMI supplemented with 10% fetal bovine serum. Cells were stimulated on cytokine production by adding concanavalinA (ConA) at 5 μg/mL final concentration. Unstimulated cells were cultured in medium alone. Stock solution was prepared out of testing compounds as 10 mM in DMSO. Final concentrations made in cell culture medium were tested when they had been added together with ConA. After 72 hours incubation period cell culture supernatants were collected. In each sample IL-4, IL-5, IL-10 and IFNγ were detected and quantified using enzyme linked immunosorbent assay (ELISA) specific for pointed cytokines (R&D Systems).
(§2) To calculate results, standard curve was made out of measured OD values for recombinant protein in known concentrations. Cytokine content in unknown samples was calculated out of OD values extrapolated from the standard curve.
(§3) Percentage of inhibition is calculated using formula:
(§4) % Inhibition=(1−cytokine concentration of sample/cytokine concentration of positive control)×100.

[3] = system: IL-1β; experiment: Inhibition of IL-1β production by LPS stimulated human peripheral blood mononuclear cells (hPBMCs); type: cell-based; conditions: 25 μM
Experimental: Blood was taken from healthy volunteer donor, diluted with the same volume of saline and was separated by gradient density centrifugation on FicollPaque™ Plus on 400 g for 30 minutes. PBMCs were collected, washed in RPMI, counted and number per mL was adjusted.
Collected PBMCs were cultured into 96 well tissue culture plate, flat bottom as 35.000 cells/well/200 uL in RPMI supplemented with 10% fetal bovine serum, prior inactivated on 56° C. for 30 minutes. Cells were stimulated on IL-1 production by adding LPS (serotype 0111:B4, Sigma, cat# L-2630), at final concentration 1 ng/mL. Unstimulated cells were cultured in medium alone. Stock solution was prepared out of testing compounds as 10 mM in DMSO. Final concentrations made in cell culture medium were tested when they had been added together with LPS. […] Negative and positive control samples were prepared in sextaplicates and samples with tested compound concentrations in triplicates. After overnight incubation in humidified atmosphere containing 5% CO2, supernatants were collected.
Harvested cell culture supernatants were quantified for IL-1β content by enzyme linked immunosorbent assay (ELISA).
as §3, §4

[4] = system: IL-10; experiment: Inhibition of IL-10 production by ConA stimulated mouse splenocytes; type: cell-based; conditions: 25 μM
Experimental: as §1, §2, §3, §4

[5] = system: IL-5; experiment: Inhibition of IL-5 production by ConA stimulated mouse splenocytes; type: cell-based; conditions: 25 μM
Experimental: as §1, §2, §3, §4

[6] = system: IFNγ; experiment: Inhibition of IFNγ production by ConA stimulated mouse splenocytes; type: cell-based; conditions: 25 μM
Experimental: as §1, §2, §3, §4

[7] = system: Balb/C mice; experiment: Ovalbumin induced pulmonary eosinophilia in mice; type: in vivo, mouse; conditions: OVA sensitized and challenged mice; i.n., i.p. or per os
Experimental: Male Balb/C mice with a body weight of 20-25 g are randomly divided into groups, and sensitized by an i.p. injection of ovalbumin (OVA, Sigma) on day zero and day fourteen. On the twentieth day, the mice are subjected to a challenge test by i.n. (intranasal) application of OVA (positive control or test groups) or PBS (negative control). The compounds are administered daily i.n., i.p. or per os in different doses starting 2 days before the challenge and up to the completion of the test. Compounds are administered as suspension either in PBS, methyl cellulose or carboxymethyl cellulose with addition od DMSO (up to 5% of the total volume). 48 hours after i.n. application of OVA, the animals are then anaesthetized to obtain bronchoalveolar lavage fluid (BALF), which is used to determine total protein concentration as well as concentrations of cytokines such as IL-1β and TNF-α, absolute number of cells, and percentage of eosinophils in BALF. Bronchoalveolar lavage (BAL) is performed by infusing 1 mL of PBS divided into 3 separate volumes (0.4, 0.3 and 0.3 ml) through trachea into the lungs. The fluid is immediately withdrawn and the cell suspension stored into previously prepared 1.5 mL Eppendorf tube. Bronchoalveolar lavage fluid (BALF) is then centrifuged at […] for 5 min (4° C.). Cells are resuspended in 700 μL of PBS. To prepare cytospins, 320 μL of suspension is centrifuged at 250 rpm for 10 min (Cytospin-3, Shandon Instruments). Cells are stained with Dif-Quik (Dade Behring) to determine percentage of eosinophils by counting of at least 100 cells. The remaining resuspended cells are used for total cell count in BALF analysis (Sysmex SF 3000). Finally, lungs are sampled and stored into 10% formalin for pathohistological evaluation of eosinophil and mononuclear infiltrate. Accumulation of eosinophils and mononuclear cells in peribronchial (PB) and perivascular (PV) lung tissue areas and in alveolar spaces is monitored.
Results can be expressed as (I) decrease of absolute cell number per mL in BALF, (II) decrease of number of eosinophils per mL in BALF, (III) reduction of relative number (percentage) of eosinophils in BALF, (IV) reduction of cytokine concentrations in BALF, as well as (V) suppression of accumulation of eosinophils and mononuclear cells in peribronchial (PB) and perivascular (PV) lung tissue areas and in alveolar spaces by pathohistological scoring of treated animals compared to positive control (OVA stimulated, but untreated animals).
Fluticasone and beclomethasone are used as standard anti-inflammatory substances, and compared for ability to inhibit eosinophilia to the negative and positive controls.

[8] = system: Balb/cJ mice; experiment: LPS induced pulmonary neutrophilia in mice; type: in vivo, mouse; conditions: LPS challenged mice; i.n., i.p. or per os
Experimental: Male Balb/cJ mice (Iffa Credo, France) weighing ˜25 g are randomly grouped into a negative control group, positive control group and groups treated with compounds to be assayed). Test compounds, as well as vehicle (DMSO+0.5% methyl-cellulose) (all from Sigma), are administered i.n., ip. or per os two hours prior to administration of lipopolysaccharide (LPS) (E. coli, serotype 0111:B4, Sigma) or two hours prior and two hours after administration of LPS. Test compounds are administered at a single dose (two hours prior the challenge) or divided into two doses (two hours prior and two hours after the challenge). LPS solution in phosphate buffered saline (PBS) (Sigma) is administered intranasally in volume of 60 μL at concentration of 33,33 μg/mL, to all experimental groups except the negative control group, which received the same volume (60 μL) of vehicle PBS. During the challenge, animals were anaesthetized by using intraperitoneal anaesthesia. Animals are euthanized by i.p. anesthesia overdose approximately 24 hours after application of LPS to obtain bronchoalveolar lavage fluid (BALF), which is used to determine total protein concentration as well as concentrations of cytokines, such as IL-1β and TNF-α, absolute number of cells, and percentage of neutrophils in BALF. Bronchoalveolar lavage (BAL) is performed by infusing 1 mL of PBS divided into 3 separate volumes (0.4, 0.3 and 0.3 ml) through trachea into the lungs. The fluid is immediately withdrawn and the cell suspension stored into previously prepared 1.5 mL Eppendorf tube. Bronchoalveolar lavage fluid (BALF) is then centrifuged at […] for 5 min (4° C.). Cells are resuspended in 700 μL of PBS. To prepare cytospins, 320 μL of suspension is centrifuged at 250 rpm for 10 min (Cytospin-3, Shandon Instruments). Cells are stained with Dif-Quik (Dade Behring) to determine percentage of neutrophils by counting of at least 200 cells. The remaining resuspended cells are used for total cell count in BALF analysis (Sysmex SF 3000). […] Accumulation of granulocytes and mononuclear cells in peribronclhial (PB) and perivascular (PV) lung tissue areas and alveolar spaces is monitored.
Results can be expressed as (I) decrease of absolute cell number per mL in BALF, (II) decrease of number of neutrophils per mL in BALF, (III) reduction of relative number (percentage) of neutrophils in BALF, (IV) reduction of cytokine concentrations in BALF, as well as (V) suppression of accumulation of granulocytes and mononuclear cells in peribronchial (PB) and perivascular (PV) lung tissue areas and in alveolar spaces by pathohistological scoring of treated animals compared to positive control (LPS stimulated, but untreated animals).

[9] = system: RBL-2H3 cell line; experiment: IgE-induced RBL-2H3 mast cell degranulation (Fcε receptor type I); type: cell-based, rat; conditions: concentrations from 200-50 μM; RBL-2H3 cells; stimulus not specified
Experimental: RBL-2H3 cell line of rat basophilic leukaemia (ATCC) was used for the investigation of inhibition of degranulation induced by the activation of Fcε receptor type I or calcium ionophors. RBL-2H3 cell line was cultivated in DMEM medium (Invitrogen Cat. No. 31966-021) with 10% of phoetal calf serum (Invitrogen Corporation) at 37° C., 5% CO2, 90% relative humidity. Cells were seeded in the same medium into 24-well plates, 50000 per well, and left to reach 80-90% of confluence.
Dilutions of compounds were prepared in DMEM medium without phenol red (Invitrogen Corporation) in concentrations from 200 μM to 1 μM. The medium was removed from the cells and the diluted of compounds were added to the wells with the exception of the positive and the negative control where pure DMEM medium was added. Subsequently,
1. for the IgE-induced degranulation by Fcs receptor type I, a solution of SPE-1 (dinitrophenyl specific IgE) antibodies (Sigma) and dinitrophenylalbumin (Sigma), both in a final concentration of 0.5 μg/mL,
In the case of the negative control wells, pure DMEM medium was added. The cells were incubated for one hour at 37° C., 5% CO2, and 90% relative humidity. Each dilution as well as the positive and the negative controls were performed in triplicate. The supernatant (50 μL) was transferred in duplicate to a 96-well plate. […] The absorbance was measured at […]. […]

Row | SMILES | suppression of ear oedema [1] | inhibition of IL-4 production [2] | inhibition of IL-1β production [3] | inhibition of IL-10 production [4] | inhibition of IL-5 production [5] | inhibition of IFNγ production [6] | reduction of percentage of eosinophils and/or their total number in BALF and/or by histological scoring [7] | reduction of percentage of neutrophils and/or their total number in BALF and/or by histological scoring [8] | inhibition of degranulation (standard) [9]
1 | CCc1ccc2oc(=O)c(C(c3ccc(O)cc3)c3c(O)c4cc(CC)ccc4oc3=O)c(O)c2c1 [Example 244] | considered active | significantly inhibited | significantly inhibited | significantly inhibited | significantly inhibited | significantly inhibited | – | – | –
2 | Cc1cc2oc(=O)c(C(c3c(O)c4cc(C)c(C)cc4oc3=O)C(C)O)c(O)c2cc1C (stereo not shown) [Example 363] | considered active | – | – | – | – | – | statistically significant reduction | statistically significant reduction | –
3 | CN1CCC(=C2c3ccccc3CC(=O)c3sccc32)CC1 [Ketotifen, ketotifen] | – | – | – | – | – | – | – | – | significantly inhibits degranulation
